One data set deals with Venturia inaequalis. The experiment in a line: Venturia test (apple) / protective. The settings on record: 240 h, active compound concentration 100 ppm, evaluation 10 days after inoculation, read-out: efficacy. Format: in vivo. The method, then:
After the spray coating has dried on, the plants are inoculated with an aqueous conidia suspension of the apple scab pathogen Venturia inaequalis and then remain for 1 day in an incubation cabinet at about 20° C. and 100% relative atmospheric humidity.

The next data set has as its system Alternaria solani. In words: Alternaria test (tomato) / protective. As to conditions: 72 h, active compound concentration 100 ppm, evaluation 3 days after inoculation, read-out: efficacy. In kind it is in vivo. On the procedure:
The plants are then placed in an incubation cabinet at about 20° C. and 100% relative atmospheric humidity.

Another data set has as its system Sphaerotheca fuliginea. In words: Sphaerotheca test (cucumber) / protective. In kind it is in vivo. The settings on record: Podosphaera fuliginea, 168 h, active compound concentration 500 ppm, evaluation 7 days after inoculation, read-out: efficacy. The method, then: The plants are subsequently placed in a greenhouse at 70% relative atmospheric humidity and a temperature of 23° C.

Another data set concerns Leptosphaeria nodorum. In words: Leptosphaeria nodorum test (wheat) / protective. In kind it is in vivo. The settings on record: Parastagonospora nodorum, active compound concentration 500 ppm, evaluation 7-9 days after inoculation, read-out: efficacy. The method, then: Thereafter, the plants are placed in a greenhouse at 90% relative atmospheric humidity and a temperature of 22° C.

The subject of the next data set is Pyrenophora teres. The experiment in a line: Pyrenophora teres test (barley) / protective. Format: in vivo. As to conditions: 192 h, active compound concentration 500 ppm, evaluation 8 days after inoculation, read-out: efficacy. The method, then:
After the spray coating has dried on, the plants are sprayed with a spore suspension of Pyrenophora teres. The plants remain in an incubation cabinet for 48 hours at 20° C. and 100% relative atmospheric humidity.

The test system of the next data set is Pyricularia oryzae. The experiment in a line: whole plant or invertebrate. Format: in vivo. The settings on record: 120 h, read-out: efficacy.
The next data set deals with Rhizoctonia solani. The experiment in a line: Rhizoctonia test (rice) / protective. Format: in vivo. The settings on record: 96 h, active compound concentration 250 ppm, evaluation 4 days after inoculation, read-out: efficacy.
The subject of a further data set is Fusarium proliferatum. In words: Production of fumonisin FB1 by Fusarium proliferatum (microtitre plates; FB1 by HPLC-MS/MS, growth by OD620). As to conditions: Fusarium proliferatum, 144 h. Format: cell-based.
Data set [1] can be described thus: logP by LC-MS on reversed-phase columns (C 18), method [b], acidic range pH 2.7. As to conditions: pH 2.7, log p. In kind it is physicochemical. On the procedure: (§1) The logP values were determined in accordance with EEC Directive 79/831 Annex V.A8 by HPLC (High Performance Liquid Chromatography) on reversed-phase columns (C 18), using the methods below:
[b] The LC-MS determination in the acidic range is carried out at pH 2.7 using the mobile phases 0.1% aqueous formic acid and acetonitrile (contains 0.1% formic acid), linear gradient from 10% acetonitrile to 95% acetonitrile.

A short description of data set [2]: logP by LC-MS on reversed-phase columns (C 18), method [c], neutral range pH 7.8. Format: physicochemical. The settings on record: pH 7.8. The method, then:
as §1
[c] The LC-MS determination in the neutral range is carried out at pH 7.8 using the mobile phases 0.001 molar aqueous ammonium bicarbonate solution and acetonitrile, linear gradient from 10% acetonitrile to 95% acetonitrile.

Another data set has as its system Cochliobolus miyabeanus. In words: Cochliobolus test (rice) / protective. As to conditions: Bipolaris oryzae, in Oryza sativa, 96 h, read-out: efficacy.
The subject of another data set is Fusarium graminearum. In words: microbe, parasite or virus in culture. Format: cell-based. As to conditions: 168 h, read-out: DON/AcDON-inhibitory activity.
Data set [3] is described as follows: logP by HPLC on reversed-phase columns (C 18), method [a], acidic range pH 2.3. In kind it is physicochemical. As to conditions: pH 2.94, logP (pH2.94).
Test in data set [4]: as above
In kind it is physicochemical. As to conditions: pH 2.3, logP (pH2.3). On the procedure: as §1
[a] The determination is carried out in the acidic range at pH 2.3 using the mobile phases 0.1% aqueous phosphoric acid and acetonitrile, linear gradient from 10% acetonitrile to 95% acetonitrile.

Where [5] appears, read: growth, OD620 at the beginning and after 6 days, read-out: pI50 growth (converted).

The structures appear in SMILES notation. Like-named read-outs stand apart in the source and are kept apart here. Where only a bound is given, the exact number is not on record here.

Protocol for Cochliobolus miyabeanus: Cochliobolus Test (Rice)/Protective • Solvent: 28.5 parts by weight of acetone • Emulsifier: 1.5 parts by weight of alkylaryl polyglycol ether
1 day after the treatment, the plants are inoculated with an aqueous spore suspension of Cochliobolus miyabeanus. The plants are then placed in a greenhouse at 100% relative atmospheric humidity and 25° C.
Evaluation is carried out 4 days after the inoculation.

Consider `COC(C)(C)c1cccc(Nc2ncc(Cl)c(NC3CC3)n2)c1` [Example 59], for which the pest or weed control at 100 ppm in the data set on Venturia inaequalis and in the data set on Alternaria solani was not below 70% throughout. For the same compound, the pest or weed control at 500 ppm in the data set with Sphaerotheca fuliginea, in the data set on Leptosphaeria nodorum and in the data set with Pyrenophora teres was not below 70% throughout. For the same compound, the pest or weed control at 250 ppm with Pyricularia oryzae, in the data set with Rhizoctonia solani and with Cochliobolus miyabeanus was not below 80% each time. The IC50 was 0.501 µM in the data set on Fusarium proliferatum (read-out: pI50 Fum) and 3.16 µM with Fusarium proliferatum (setting [5]). Moreover, the chromatographic logP came to 2.16 in data set [1] and 3.5 in data set [2].

As to `COCc1cccc(Nc2ncc(Cl)c(N(C)C3CC3)n2)c1` [Example 58], in the data set with Venturia inaequalis, the pest or weed control at 100 ppm was not below 70%. Also, the pest or weed control at 500 ppm in the data set on Sphaerotheca fuliginea, with Leptosphaeria nodorum and in the data set on Pyrenophora teres was not below 70% in each case. In addition, the inhibition at 50 µM with Fusarium graminearum is more than 80%. The figures for the chromatographic logP in [1] and in [2] were 2.7 and 3.76, respectively.

`CC(O)c1cccc(Nc2ncc(Cl)c(NC3CC3)n2)c1` (centres unmarked) [Ic-IV-1, 1-(3-{[5-Chloro-4-(cyclopropylamino)pyrimidin-2-yl]amino}phenyl)ethanol] displayed a chromatographic logP in data set [3] of 1.25.

For `COCC(O)c1cccc(Nc2ncc(C(F)(F)F)c(NC3CC3)n2)c1` (centres unmarked) [Example 195], the pest or weed control at 500 ppm in the data set with Sphaerotheca fuliginea, in the data set on Leptosphaeria nodorum and in the data set with Pyrenophora teres was not below 70% each time. Besides, the pest or weed control at 250 ppm in the data set with Pyricularia oryzae and in the data set on Rhizoctonia solani was not below 80% in each case. Also, the inhibition at 50 µM in the data set with Fusarium graminearum is more than 80%. The chromatographic logP in data set [1] turned out to be 1.97; in data set [2], 2.64.

On to `COCc1cccc(Nc2ncc(Cl)c(NCCF)n2)c1` [Example 138], for which the pest or weed control at 100 ppm in the data set with Venturia inaequalis and in the data set on Alternaria solani was not below 70% throughout. For the same compound, the pest or weed control at 500 ppm with Sphaerotheca fuliginea, in the data set with Leptosphaeria nodorum and with Pyrenophora teres was not below 70% each time. Also, in the data set with Pyricularia oryzae, the pest or weed control at 250 ppm was not below 80%. Further, the inhibition at 50 µM in the data set with Fusarium graminearum was more than 80%. Moreover, the chromatographic logP in data set [1] was 1.48; in data set [2], 2.57.

With `CCC(SC)c1cccc(Nc2ncc(Cl)c(NC3CC3)n2)c1` (centres unmarked) [Example 61, 5-Chloro-N^4-cyclopropyl-N^2-{3-[1-(methylsulphanyl)propyl]phenyl}pyrimidine-2,4-diamine], the chromatographic logP in data set [4] is 2.59; in data set [1], 2.94. Further, the pest or weed control at 100 ppm in the data set on Venturia inaequalis and in the data set with Alternaria solani was not below 70% throughout. The pest or weed control at 500 ppm with Sphaerotheca fuliginea and with Leptosphaeria nodorum was not below 70% each time. Moreover, the pest or weed control at 250 ppm with Pyricularia oryzae and with Rhizoctonia solani was not below 80% in each case. Further, the inhibition at 50 µM with Fusarium graminearum was more than 80%.

With `CCC[S+]([O-])c1cccc(Nc2ncc(C(F)(F)F)c(Cl)n2)c1` (centres unmarked) [Xb-1, 4-Chloro-N-[3-(propylsulphinyl)phenyl]-5-(trifluoromethyl)pyrimidin-2-amine], the chromatographic logP in data set [3] was found to be 1.76.

Regarding `CC[S+]([O-])c1cccc(Nc2ncc(Cl)c(NC3CCC3)n2)c1` (centres unmarked) [Example 28, 5-Chloro-N^4-cyclobutyl-N^2-[3-(ethylsulphinyl)phenyl]pyrimidine-2,4-diamine], the chromatographic logP in [4] and in data set [1] was 1.76 each time. Also, the pest or weed control at 100 ppm in the data set with Venturia inaequalis and in the data set with Alternaria solani was not below 70% in each case. Besides, the pest or weed control at 500 ppm with Sphaerotheca fuliginea, with Leptosphaeria nodorum and in the data set on Pyrenophora teres was not below 70% throughout. Besides, the pest or weed control at 250 ppm in the data set with Pyricularia oryzae, in the data set with Rhizoctonia solani and with Cochliobolus miyabeanus was not below 80% in each case. Moreover, the IC50 in the data set with Fusarium proliferatum (read-out: pI50 Fum) was 3.98 µM; in the data set on Fusarium proliferatum (setting [5]), 20 µM.

What is called chromatographic logP is lipophilicity estimated from chromatographic retention.

The record behind these values is patent US20110245284A1, “Alkoxy- and Alkylthio-Substituted Anilinopyrimidines” (Bayer CropScience AG, priority 2008, published 2011).
